These compounds were tested on Rattus norvegicus (assay: Antiallergic activity against anti-egg albumin homocytotropic antibody injected Sprague-Dawley rat assessed as inhibition of passive cutaneous anaphylaxis reaction administered iv at the time of egg albumin antigen challenge or ip 30 mins prior to egg albumin antigen challenge). Settings: read-out: ID50 (the source's name).
Type: functional

Point of comparison: `O=C(O)c1cc(=O)c2c(ccc3[nH]c(C(=O)O)cc(=O)c32)[nH]1`, ED50 2.5 mg/kg. Against it:
- O=C(O)c1cc(=O)c2cc3c(=O)cc(C(=O)O)[nH]c3c(Cl)c2[nH]1 — 50-fold lower, 0.05 mg/kg
- N#Cc1c2c(=O)cc(C(=O)O)[nH]c2c(Cl)c2[nH]c(C(=O)O)cc(=O)c12 — 50-fold lower, 0.05 mg/kg
- O=C([O-])c1cc(=O)c2c(OCC(O)COc3cccc4oc(C(=O)[O-])cc(=O)c34)cccc2o1.[Na+].[Na+] [CROMOLYN SODIUM] — the same, 2.5 mg/kg
- CCCCCc1cc2c(=O)cc(C(=O)O)[nH]c2c2c(=O)cc(C(=O)O)[nH]c12 — 50-fold lower, 0.05 mg/kg
- O=C([O-])c1cc(=O)c2cc3c(=O)cc(C(=O)[O-])[nH]c3c(C(=O)O)c2[nH]1.[Na+].[Na+] — 25-fold lower, 0.1 mg/kg
- O=C(O)c1cc(=O)c2ccc3c(ccc4c(=O)cc(C(=O)O)[nH]c43)c2[nH]1 — 500-fold lower, 0.005 mg/kg
- O=C(O)c1cc(=O)c2c(C(F)(F)F)c3c(=O)cc(C(=O)O)[nH]c3c(Cl)c2[nH]1 — 2-fold higher, 5 mg/kg
- Cc1c2[nH]c(C(=O)[O-])cc(=O)c2cc2c(=O)cc(C(=O)[O-])[nH]c12.[Na+].[Na+] — 10-fold lower, 0.25 mg/kg
- Cc1c2c(=O)cc(C(=O)[O-])[nH]c2c(Cl)c2[nH]c(C(=O)[O-])cc(=O)c12.[Na+].[Na+] — 250-fold lower, 0.01 mg/kg
- O=C(O)c1cc(=O)c2c(cc(C(=O)O)c3c(=O)cc(C(=O)O)[nH]c32)[nH]1 — 4-fold higher, 10 mg/kg
- COc1c2[nH]c(C(=O)O)cc(=O)c2cc2c(=O)cc(C(=O)O)[nH]c12 — 25-fold lower, 0.1 mg/kg
- O=C(O)c1cc(=O)c2cc(Cl)c3c(ccc4c(=O)cc(C(=O)O)[nH]c43)c2[nH]1 — 50-fold lower, 0.05 mg/kg
- N#Cc1c2[nH]c(C(=O)O)cc(=O)c2cc2c(=O)cc(C(=O)O)[nH]c12 — 50-fold lower, 0.05 mg/kg
- O=C(O)c1ccc2ccccc2n1 [QUINALDIC ACID] — 20-fold higher, 50 mg/kg
- O=C(O)c1cc(=O)c2c(ccc3c(=O)cc(C(=O)O)[nH]c32)[nH]1 — 2.5-fold lower, 1 mg/kg
- O=C(O)c1cc(=O)c2c([nH]1)c1c(=O)cc(C(=O)O)[nH]c1c1c(=O)cc(C(=O)O)[nH]c21 — 5-fold lower, 0.5 mg/kg
- Cc1c(C(=O)[O-])[nH]c2c(C)c3[nH]c(C(=O)O)c(C)c(=O)c3cc2c1=O.[Na+] — 2-fold higher, 5 mg/kg
- O=C(O)c1cc(=O)c2cc3c(=O)cc(C(=O)O)[nH]c3c(F)c2[nH]1 — 5-fold lower, 0.5 mg/kg
- Cc1c(C(=O)O)[nH]c2ccc3[nH]c(C(=O)O)c(C)c(=O)c3c2c1=O — 4-fold higher, 10 mg/kg
- CCCCc1cc2c(=O)cc(C(=O)O)[nH]c2c2c(=O)cc(C(=O)O)[nH]c12 [BUFROLIN] — 500-fold lower, 0.005 mg/kg

Species on record: Rattus norvegicus
Experiment: Ratio of cromolyn sodium ID50 to compound ID50 for inhibition of passive cutaneous anaphylaxis reaction in Sprague-Dawley rat
Type: functional
Settings: not given

Point of comparison: `O=C(O)c1cc(=O)c2ccc3c(ccc4c(=O)cc(C(=O)O)[nH]c43)c2[nH]1`, Ratio 500. Against it:
- CCCCc1cc2c(=O)cc(C(=O)O)[nH]c2c2c(=O)cc(C(=O)O)[nH]c12 [BUFROLIN] — the same, 500

`Cc1c2c(=O)cc(C(=O)[O-])[nH]c2c(Cl)c2[nH]c(C(=O)[O-])cc(=O)c12.[Na+].[Na+]` was tested, and the Ratio was >250.

Reference: ChEMBL document CHEMBL3272250, “Quinoline derivatives as antiallergy agents. 2. Fused-ring quinaldic acids” (1977)
